The values below come from PubChem BioAssay AID602380 (Sanford-Burnham Center for Chemical Genomics, 2012).

pIC50: −log10 of the molar value. Calls of active or inactive are those of the source. No rule for the calls is given here.

Usually IC50 stands for the concentration that inhibits the measured activity by half. As usually defined, the pIC50 is the negative decadic logarithm of the IC50, by convention in mol/L.

The test in a line: TIM10 isogenic strain growth inhibitors – luminescence, S. cerevisiae, counter-screen for tim23-1 inhibitor project, SAR follow-up (AID 602380). The conditions noted are these: S. cerevisiae TIM10 isogenic control strain, BacTiter-Glo growth luminescence.
For `Cc1ccc(S(=O)(=O)Cc2cc(=O)n3ccccc3n2)nc1`, the IC50 was > 99 µM (inactive).

For the compound `CCN(C(=O)c1cccc2ncccc12)c1c(N)n(Cc2ccccc2)c(=O)[nH]c1=O`, the IC50 was > 99 µM (inactive).

Regarding `O=C(Nc1nc2ccccc2s1)C1CCCN1S(=O)(=O)c1ccc(Cl)cc1` (centres undefined), the negative logarithm of the IC50 (pIC50) is 5.20.

Consider `O=C(N/N=C/C(Cl)=C\c1ccccc1)c1cccs1`, for which the pIC50 is 5.02.

In the case of `O=C1OC(c2ccccc2)=N/C1=C\C=C\c1ccco1`, the negative logarithm of the IC50 (pIC50) was 5.17.

For `O=c1cc(C(F)F)oc2c1ccc1ccccc12`, the IC50 is > 99 µM (inactive).

Regarding `N#C/C(=C\c1ccc(Cl)cc1)C(=O)Nc1cccnc1`, the pIC50 is 4.85.

As to `Cc1nc2scc(C)n2c(=O)c1S(=O)(=O)Nc1ccc(Oc2ccc(Cl)cc2)cc1`, the IC50 is > 99 µM (inactive).

As to `N#Cc1ccc(C2N=C(c3ccccc3)NO2)cc1` (centres undefined), the IC50 was > 99 µM (inactive).

Turning to `Cc1nc2scc(C)n2c(=O)c1S(=O)(=O)Nc1ccc2c(c1)OCCO2`, the pIC50 is 4.09.

On to `CC(C)(C)c1csc(NC(=O)c2ccc(Cl)s2)n1`, for which the negative-log IC50 (pIC50) was 5.01.

Turning to `Cc1ccc2nc(CSc3ncc(C(F)(F)F)cc3Cl)cc(=O)n2c1`, the IC50 is > 99 µM (inactive).

In the case of `N/C(=N\OC(=O)c1ccc2ncsc2c1)c1ccc(Cl)cc1Cl`, the pIC50 was 5.59.

With `Cc1ccc(-c2cc(NC(=O)c3c(C)noc3C)nc(-c3ccccc3)c2)cc1`, the IC50 was > 99 µM (inactive).

With `N#Cc1c(-c2ccccc2)cc(-c2ccc(O)cc2)nc1N`, the negative logarithm of the IC50 (pIC50) was 5.34.

Consider `CCOc1cc2ccccc2cc1C(=O)O/N=C(\N)c1ccc(Cl)cc1`, for which the pIC50 was 5.62.

Consider `O=C(CSCc1ccccc1)Nc1cc(S(=O)(=O)N2CCOCC2)ccc1Oc1ccccc1`, for which the IC50 was > 99 µM (inactive).

In the case of `N/C(=N\OC(=O)c1ccc(Cl)c(Cl)c1)c1cccc(CS(=O)(=O)c2ccccn2)c1`, the pIC50 was 4.81.

In the case of `O=C(Nc1ccc2nc(-c3ccc(Br)o3)[nH]c2c1)c1cccs1`, the pIC50 was 4.51.

For the compound `COc1cc2c(cc1OC)/C(=C/c1ccc(Cl)cc1)C(=O)OC2`, the negative-log IC50 (pIC50) was 5.58.

On to `Cn1c(SCc2cccc(/C(N)=N/OC(=O)c3ccc(Cl)cc3)c2)nnc1C(F)(F)F`, for which the negative logarithm of the IC50 (pIC50) is 5.44.

As for `Cc1ccc(OCC(=O)O/N=C(\N)Cc2ccc(Cl)cc2)cc1`, the pIC50 is 4.69.

`O=S(=O)(Nc1ccc(-c2cn3c(n2)SCC3)cc1)c1cccnc1`: the IC50 is > 99 µM (inactive).

Turning to `O=c1cc(CSc2ccc(S(=O)(=O)N3CCOCC3)cn2)nc2ccc(Br)cn12`, the pIC50 is 4.37.

Take `N/C(=N\OC(=O)c1cccc2ccccc12)c1ccc(Cl)cc1`: the pIC50 is 6.11.

For `N/C(=N\OC(=O)c1ccccc1)c1ccc(F)cc1F`, the pIC50 was 4.78.

For `N/C(=N\OC(=O)c1ccc(Cl)cc1)c1cccc(CS(=O)(=O)c2ccccn2)c1`, the pIC50 is 4.72.

Consider `N#Cc1c(-c2ccc([N+](=O)[O-])cc2)cc(-c2ccccc2)nc1N`, for which the IC50 was > 99 µM (inactive).

In the case of `COc1ccc(/C(N)=N/OC(=O)c2ccc(C(F)(F)F)cc2)c(OC)c1`, the negative-log IC50 (pIC50) was 4.14.

In the case of `Cc1nc2scc(C)n2c(=O)c1S(=O)(=O)Nc1ccc(N2CCN(C(=O)C(C)C)CC2)cc1`, the IC50 is > 99 µM (inactive).

`CCCCOc1ccc(C(=O)O/N=C(\N)c2cccc(Br)c2)cc1`: the negative-log IC50 (pIC50) is 4.68.

As to `CCCN(C(=O)c1ccc([N+](=O)[O-])c(C)c1)c1c(N)n(Cc2ccccc2)c(=O)[nH]c1=O`, the IC50 was > 99 µM (inactive).

In the case of `Cc1nc2scc(C)n2c(=O)c1S(=O)(=O)Nc1cccc(C(F)(F)F)c1`, the pIC50 is 4.45.

For `Cc1ccc2nc(CS(=O)(=O)c3ncccc3Cl)cc(=O)n2c1`, the IC50 is > 99 µM (inactive).

Regarding `N/C(=N\OC(=O)c1ccc2ncsc2c1)c1ccccc1`, the pIC50 was 5.04.

Regarding `Cc1nc2scc(C)n2c(=O)c1S(=O)(=O)Nc1ccc(OC(F)(F)F)cc1`, the negative logarithm of the IC50 (pIC50) is 4.67.

Turning to `CN1CCc2nc3sc(C(=O)C45CC6CC(CC(C6)C4)C5)c(N)c3cc2C1`, the negative-log IC50 (pIC50) is 4.38.

As for `CS(=O)(=O)Nc1ccc(/C(N)=N/OC(=O)c2ccccc2Cl)cc1`, the negative logarithm of the IC50 (pIC50) is 4.18.

In the case of `O=C(O)c1cccnc1SCc1cc(=O)n2cc(Br)ccc2n1`, the IC50 is > 99 µM (inactive).

Take `COc1ccc([N+](=O)[O-])cc1NS(=O)(=O)c1c(C)nc2scc(C)n2c1=O`: the IC50 is > 99 µM (inactive).

Turning to `Cc1noc(C)c1S(=O)(=O)Nc1ccc(-c2cn3c(n2)SCC3)cc1`, the negative-log IC50 (pIC50) was 4.10.

With `Cc1nc2scc(C)n2c(=O)c1S(=O)(=O)Nc1cc(C(F)(F)F)ccc1Cl`, the pIC50 is 4.10.

Consider `O=C(Nc1ccc(-c2cn3ccccc3n2)cc1)c1cccs1`, for which the pIC50 was 5.10.

`Cc1nc2scc(C)n2c(=O)c1S(=O)(=O)Nc1ccc(CN2CCCCC2)cc1`: the IC50 was > 99 µM (inactive).

On to `Cc1nc2scc(C)n2c(=O)c1S(=O)(=O)Nc1ccc(N2CCOCC2)cc1`, for which the IC50 is > 99 µM (inactive).

Turning to `NC(=O)C1CCN(c2nc(-c3cccnc3)nc3ccccc23)CC1`, the IC50 is > 99 µM (inactive).

Consider `Cc1nn(Cc2cccc(C(=O)O/N=C(\N)c3ccc(Cl)cc3)c2)c(C)c1Br`, for which the negative-log IC50 (pIC50) was 5.77.

Regarding `Nc1cccc(Oc2ccc(Oc3cccc(N)c3)cc2)c1`, the IC50 is > 99 µM (inactive).

Consider `Cc1nc2scc(C)n2c(=O)c1S(=O)(=O)Nc1ccc(N2CCN(S(C)(=O)=O)CC2)cc1`, for which the IC50 was > 99 µM (inactive).

`CCn1c(N2CCN(S(=O)(=O)c3ccc(OC)cc3)CC2)nc2ccccc21`: the negative logarithm of the IC50 (pIC50) is 4.80.

Take `N=c1c2c(-c3ccccc3)c(-c3ccccc3)n(Cc3ccco3)c2ncn1CCCN1CCOCC1`: the IC50 was > 99 µM (inactive).

As to `Cc1ccc2nc(N3C(=O)CNC3=S)sc2c1`, the pIC50 was 5.17.

On to `CCOc1ccc(C(=O)O/N=C(\N)c2ccc(OC)cc2)cc1OCC`, for which the negative logarithm of the IC50 (pIC50) is 5.25.

`N/C(=N\OC(=O)c1ccc(Cl)cc1)c1ccc(S(=O)(=O)N2CCOCC2)cc1`: the pIC50 is 5.32.

For the compound `Cc1c2c(n(Cc3ccco3)c1C)N=CN1CCS(=O)(=O)N=C21`, the pIC50 was 4.31.

For `CC(C)Cn1cnc2c(c(-c3ccccc3)c(-c3ccccc3)n2Cc2ccco2)c1=N`, the negative-log IC50 (pIC50) is 4.46.

For `Cc1nc(SCc2cc(=O)n3cc(Br)ccc3n2)c(C#N)c(C)c1C`, the IC50 was > 99 µM (inactive).

Take `Cc1nc2scc(C)n2c(=O)c1S(=O)(=O)Nc1ccc(Cl)c(C(F)(F)F)c1`: the pIC50 was 4.04.

Consider `Cc1nc2scc(C)n2c(=O)c1S(=O)(=O)Nc1ccc(N2CCOCC2)c(Cl)c1`, for which the IC50 was > 99 µM (inactive).

For `Cc1ccc(C2=NNC(c3ccc(Cl)cc3Cl)S2)cc1` (centres undefined), the pIC50 was 5.29.

For the compound `COc1ccc(/C=C/C(=O)Nc2ccc3c(c2)CCC3)cc1OC`, the negative logarithm of the IC50 (pIC50) was 4.95.

On to `Oc1ccc(Oc2ccc(Oc3ccc(O)cc3)cc2)cc1`, for which the negative-log IC50 (pIC50) is 5.24.

Consider `N/C(=N\OC(=O)c1ccc(F)cc1)c1ccc(Br)cc1`, for which the pIC50 is 4.40.

For the compound `Cc1ccc(/C(N)=N/OC(=O)c2ccccc2)cc1F`, the pIC50 was 5.86.

For `Cc1ccc(Nc2nc(-c3cccnc3)nc3ccccc23)cc1`, the negative logarithm of the IC50 (pIC50) is 5.39.

With `Cc1nc2scc(C)n2c(=O)c1S(=O)(=O)Nc1ccc(F)cc1Cl`, the pIC50 was 4.17.

Take `O=C(NN=C/C=C\c1ccco1)c1cccs1`: the negative logarithm of the IC50 (pIC50) is 5.35.

For the compound `C(/C=C/c1ccccc1)=NNc1nc2ccccc2[nH]1`, the pIC50 is 5.05.

Regarding `O=C(Nc1ccn[nH]1)c1ccc(Br)cc1Cl`, the IC50 was > 99 µM (inactive).

For the compound `C=C1CCc2c([nH]c3ccc(OCC(C)C)cc23)C1=O`, the pIC50 is 5.80.

For the compound `Cc1cccn2c(=O)cc(CSc3cc(C(=O)NC4CC4)c4ccccc4n3)nc12`, the IC50 is > 99 µM (inactive).

For `N/C(=N\OC(=O)c1ccc(Cl)cc1)c1ccc(-c2csnn2)cc1`, the IC50 was > 99 µM (inactive).

As to `O=C(CSc1cccc[n+]1[O-])Nc1ccccc1Oc1ccccc1`, the negative logarithm of the IC50 (pIC50) was 6.09.

Turning to `CN1CCN(c2nc(-c3cccnc3)nc3ccccc23)CC1`, the IC50 was > 99 µM (inactive).

`CCN1CCc2nc3sc(C(=O)Nc4cc(Cl)ccc4OC)c(N)c3cc2C1`: the IC50 was > 99 µM (inactive).

Turning to `CN(C(=O)c1cccc(S(C)(=O)=O)c1)c1c(N)n(Cc2ccccc2)c(=O)[nH]c1=O`, the IC50 is > 99 µM (inactive).

Take `Cc1cc(OCC(=O)O/N=C(\N)Cc2ccc(Cl)cc2)ccc1Br`: the negative-log IC50 (pIC50) was 5.68.

Take `Cc1nc2sc(C)c(C)n2c(=O)c1S(=O)(=O)Nc1ccc(Br)cc1`: the IC50 is > 99 µM (inactive).

With `Cc1ccc2nc(N3CCN(S(=O)(=O)C4CC4)CC3)[nH]c2c1`, the pIC50 was 4.31.
